Experimental data from patent publication US10800758B2, “Pyrimidine compound” (OTSUKA PHARMACEUTICAL CO., LTD., priority 2017, dated 2020).

What was measured:
Assay type in all cases: in vivo
ICR mice [1] = experiment: Subcutaneous pentylenetetrazole (scPTZ) model; details: Mus musculus; male ICR mice, 30 mg/kg oral, 85 mg/kg pentylenetetrazole s.c. after 1 hour, evaluated for 30 minutes; read-out: rate of suppression against clonic convulsions
Protocol: This test is performed to evaluate the anticonvulsant activity of the compound as in Test Example 2. Unlike the phenotype of Test Example 2, the animal model used in this test is a phenotype model of generalized absence seizure and myoclonic seizure.
The test compound was suspended in 5% gum arabic/distilled water (w/v), and administered by forced oral administration to male ICR mice (Japan SLC, Inc., 5 to 6 weeks old, 10 per group) at a dose of 30 mg/kg. After 1 hour, 85 mg/kg of pentylenetetrazole dissolved in saline was administered subcutaneously, and the occurrence of clonic convulsions was evaluated for 30 minutes.

ICR mice [2] = experiment: Maximal electroshock seizure (MES) model; details: Mus musculus; male ICR mice, 30 mg/kg oral, electrical stimulation (30 mA, 100 Hz, 0.2 second) 1 hour after administration; read-out: rate of seizure suppression (tonic hindlimb extension seizure)
Protocol: This test is performed to evaluate the anticonvulsant activity of the compound. The mouse model used in this test is a phenotype model of generalized tonic-clonic seizure and secondary generalized partial seizure. This test was performed in accordance with the report of AJ Hill et al (Br J Pharmacol. 2012 December; 167(8): 1629-42. Cannabidivarin is anticonvulsant in mouse and rat, Hill A J, et al.).
The test compound was suspended in 5% gum arabic/distilled water (w/v), and administered by forced oral administration to male ICR mice (Japan SLC, Inc., 5 to 6 weeks old, 8 per group) at a dose of 30 mg/kg. After one hour of the oral administration of the test compound, the mice were stimulated by an application of electrical current (30 mA, 100 Hz, 0.2 second) through auricular electrodes using an electroconvulsive device (UGO BASILE SRL). Then, the incidence of tonic hindlimb extension seizure was recorded. In this test, tonic hindlimb extension seizures were induced in all mice of the solvent administration group, but the rate of seizure suppression was 75% or more with the example compounds 1, 2, 3, 5, 8, 10, 12, 13, 14, 16, 18, 22, 26, 28, 30, 31, 38, 42, 47, 48 and 54, and the suppression rate was 50% or more with the example compounds 4, 6, 9, 11, 23, 41 and 45.

DBA/2 mice = experiment: Audiogenic seizure model; details: Mus musculus; male and female DBA/2 mice, 30 mg/kg oral, auditory stimulation 1 hour after administration; read-out: Seizure suppression rate (%)
Protocol: The animal model used in this test is a phenotype model for partial seizure (including secondary generalized seizure) and generalized tonic-clonic seizure, and has high clinical predictability. This test was performed in accordance with the report of De Sarro et al (Br J Pharmacol. 1988 February; 93(2): 247-56. Anticonvulsant effects of some calcium entry blockers in DBA/2 mice. De Sarro G B, Meldrum B S, Nistico G.).
In this test example, the example compounds shown in Table 3 below were used as test compounds. The following compound (compound of Example 5 of WO 2004/009559), which is the most similar compound when the substituent position is taken into consideration, was used as a comparative example compound.
The test compounds were suspended in 5% gum arabic/distilled water (w/v), and administered by forced oral administration to male and female DBA/2 mice (Japan SLC, Inc., 3 weeks old, 8 per group) at a dose of 30 mg/kg. After one hour of the oral administration of the test compound, each mouse was placed in a transparent acrylic cylinder 30 cm high and 23 cm in diameter, and 30 seconds were allowed for habituation. Then, they were exposed to auditory stimulation (12.6 kHz, 100-110 dB) for 1 minute or until a tonic seizure occurred.
The seizure response was assessed using the following scale, 0: no seizure, 1: wild running, 2: clonic seizure, 3: tonic seizure and 4: respiratory arrest. The maximum response was recorded as the seizure severity score.
The seizure suppression rate for each compound administration group was calculated according to the following formula.

Structure (SMILES): O=C1CCN(c2cnc(Oc3ccc(F)cc3)nc2)C(=O)N1 [Example 11]
- responders at 30 mg/kg (ICR mice [1]): ≥ 75%
- responders at 30 mg/kg (ICR mice [2]): ≥ 50%
- inhibition in vivo at 30 mg/kg (DBA/2 mice): 97%

Structure (SMILES): O=C1CCN(c2cnc(Oc3c(F)cccc3F)nc2)C(=O)N1 [Example 13]
- responders at 30 mg/kg (ICR mice [1]): ≥ 75%
- responders at 30 mg/kg (ICR mice [2]): ≥ 75%
- inhibition in vivo at 30 mg/kg (DBA/2 mice): 100%

Structure (SMILES): O=C1CCN(c2cnc(Oc3ccccc3F)nc2)C(=O)N1 [Example 2, 1-[2-(2-Fluorophenoxy)pyrimidin-5-yl]-5,6-dihydropyrimidine-2,4(1H,3H)-dione]
- responders at 30 mg/kg (ICR mice [1]): ≥ 75%
- responders at 30 mg/kg (ICR mice [2]): ≥ 75%
- inhibition in vivo at 30 mg/kg (DBA/2 mice): 100%

Structure (SMILES): Cc1ccc(F)cc1Oc1ncc(N2CCC(=O)NC2=O)cn1 [Example 38]
- responders at 30 mg/kg (ICR mice [2]): ≥ 75%
- inhibition in vivo at 30 mg/kg (DBA/2 mice): 100%

Structure (SMILES): C[Si](C)(C)c1cccc(Oc2ncc(N3CCC(=O)NC3=O)cn2)c1 [Example 56]
- responders at 30 mg/kg (ICR mice [1]): ≥ 50%
- inhibition in vivo at 30 mg/kg (DBA/2 mice): 82%

Structure (SMILES): O=C1CCN(c2cnc(Oc3cccc(F)c3)nc2)C(=O)N1 [Example 3, 1-[2-(3-Fluorophenoxy)pyrimidin-5-yl]-5,6-dihydropyrimidine-2,4(1H,3H)-dione]
- responders at 30 mg/kg (ICR mice [1]): ≥ 75%
- responders at 30 mg/kg (ICR mice [2]): ≥ 75%
- inhibition in vivo at 30 mg/kg (DBA/2 mice): 100%

Structure (SMILES): Cc1c(F)cccc1Oc1ncc(N2CCC(=O)NC2=O)cn1 [Example 6, 1-[2-(3-Fluoro-2-methylphenoxy)pyrimidin-5-yl]-5,6-dihydropyrimidine-2,4(1H,3H)-dione]
- responders at 30 mg/kg (ICR mice [2]): ≥ 50%
- inhibition in vivo at 30 mg/kg (DBA/2 mice): 89%

Structure (SMILES): [2H]C([2H])([2H])Oc1cccc(Oc2ncc(N3CCC(=O)NC3=O)cn2)c1 [Example 25]
- inhibition in vivo at 30 mg/kg (DBA/2 mice): 89%

Structure (SMILES): O=C1CCN(c2ccccc2)C(=O)N1 [Comparative Example, reference compound]
- inhibition in vivo at 30 mg/kg (DBA/2 mice): 27%

Structure (SMILES): CC1CC(=O)NC(=O)N1c1cnc(Oc2ccccc2)nc1 (stereo not shown) [Example 16]
- responders at 30 mg/kg (ICR mice [2]): ≥ 75%
- inhibition in vivo at 30 mg/kg (DBA/2 mice): 100%

Structure (SMILES): C#Cc1cccc(Oc2ncc(N3CCC(=O)NC3=O)cn2)c1 [Example 28]
- responders at 30 mg/kg (ICR mice [1]): ≥ 75%
- responders at 30 mg/kg (ICR mice [2]): ≥ 75%
- inhibition in vivo at 30 mg/kg (DBA/2 mice): 100%

Structure (SMILES): O=c1ccn(-c2cnc(Oc3ccccc3)nc2)c(=O)[nH]1 [Example 4, 1-(2-Phenoxypyrimidin-5-yl)pyrimidine-2,4(1H,3H)-dione]
- responders at 30 mg/kg (ICR mice [1]): ≥ 75%
- responders at 30 mg/kg (ICR mice [2]): ≥ 50%
- inhibition in vivo at 30 mg/kg (DBA/2 mice): 100%

Structure (SMILES): O=C1CCN(c2cnc(Oc3ccc(Cl)cc3)nc2)C(=O)N1 [Example 40]
- inhibition in vivo at 30 mg/kg (DBA/2 mice): 81%

Structure (SMILES): CCc1cccc(Oc2ncc(N3CCC(=O)NC3=O)cn2)c1 [Example 7, 1-[2-(3-Ethylphenoxy)pyrimidin-5-yl]-5,6-dihydropyrimidine-2,4(1H,3H)-dione]
- inhibition in vivo at 30 mg/kg (DBA/2 mice): 88%

Structure (SMILES): O=C1CCN(c2cnc(Oc3cccc(-c4ccccc4)c3)nc2)C(=O)N1 [Example 45]
- responders at 30 mg/kg (ICR mice [2]): ≥ 50%
- inhibition in vivo at 30 mg/kg (DBA/2 mice): 92%

Structure (SMILES): O=C1CCN(c2cnc(-c3ccccc3)nc2)C(=O)N1 [Example 30]
- responders at 30 mg/kg (ICR mice [2]): ≥ 75%
- inhibition in vivo at 30 mg/kg (DBA/2 mice): 97%

Structure (SMILES): O=C1CCN(c2cnc(Oc3cc(F)cc(F)c3)nc2)C(=O)N1 [Example 14]
- responders at 30 mg/kg (ICR mice [1]): ≥ 75%
- responders at 30 mg/kg (ICR mice [2]): ≥ 75%
- inhibition in vivo at 30 mg/kg (DBA/2 mice): 92%

Structure (SMILES): COc1nc(Oc2cc(F)cc(F)c2)ncc1N1CCC(=O)NC1=O [Example 54]
- responders at 30 mg/kg (ICR mice [2]): ≥ 75%
- inhibition in vivo at 30 mg/kg (DBA/2 mice): 93%

Structure (SMILES): C#Cc1ccc(Oc2ncc(N3CCC(=O)NC3=O)cn2)cc1 [Example 50]
- inhibition in vivo at 30 mg/kg (DBA/2 mice): 82%

Structure (SMILES): O=C1CCN(c2cnc(Oc3cccc(Cl)c3)nc2)C(=O)N1 [Example 26]
- responders at 30 mg/kg (ICR mice [1]): ≥ 50%
- responders at 30 mg/kg (ICR mice [2]): ≥ 75%
- inhibition in vivo at 30 mg/kg (DBA/2 mice): 100%
